Values joined by “and” are separate entries in the source; they are usually repeats but may differ in a detail not shown here. Equal entries are not always repeated. Structures can show the parent of a compound that is named as a salt.
target: T1, His6-AspH315–758 (human aspartate/asparagine-β-hydroxylase, AspH) (Homo sapiens, UniProt Q12797); test: SPE-MS AspH inhibition assay (LOPAC screen at fixed 20 μM and IC50 dose-response), hydroxylation of cyclic peptide hFX-CP101–119; format: biochemical; conditions: not given
T1 construct: N-Terminally His6-tagged human AspH315–758 (His6-AspH315–758) was produced in E. coli BL21 (DE3) cells; made in house; host or cells: E. coli BL21 (DE3), pET-28a(+) vector
T1 sequence (Q12797 315-758): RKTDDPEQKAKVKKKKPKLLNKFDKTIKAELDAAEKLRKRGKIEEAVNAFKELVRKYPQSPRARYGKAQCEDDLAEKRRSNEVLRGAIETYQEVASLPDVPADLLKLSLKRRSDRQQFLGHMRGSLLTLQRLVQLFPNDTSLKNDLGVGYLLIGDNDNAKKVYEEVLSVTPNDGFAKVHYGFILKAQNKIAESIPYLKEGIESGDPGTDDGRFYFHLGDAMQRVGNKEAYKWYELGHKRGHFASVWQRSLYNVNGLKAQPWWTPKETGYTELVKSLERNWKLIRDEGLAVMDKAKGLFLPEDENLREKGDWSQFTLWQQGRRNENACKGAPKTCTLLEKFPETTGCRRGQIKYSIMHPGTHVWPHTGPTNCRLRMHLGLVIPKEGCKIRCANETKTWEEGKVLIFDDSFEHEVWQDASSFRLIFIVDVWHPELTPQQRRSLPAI

Row | SMILES | Plate 3 (% conversion) | Plate 2 (% conversion) | Plate 1 (% conversion) | Plate 1 (% inhibition) | % conversion
1 | Cc1[nH]c2ccc(O)cc2c1CCN.O=C(O)/C=C\C(=O)O [2-Methyl-5-hydroxytryptamine maleate] | 35.71% |  |  |  | 
2 | O=c1oc(Cl)c(Cl)c2ccccc12 [3,4-Dichloroisocoumarin] |  | 29.65% |  |  | 
3 | O=[N+]([O-])c1cc(O)c(O)c([N+](=O)[O-])c1 [3,5-Dinitrocatechol, reference compound] |  | 2.07% |  |  | 
4 | NCCCP(=O)(O)O [3-Aminopropylphosphonic acid] |  |  | 37.53% | -4.94% | 
5 | CC(C)Cn1c(=O)n(C)c(=O)c2[nH]cnc21 [3-Isobutyl-1-methylxanthine] | 38.13% |  |  |  | 
6 | O=C(O)CC[N+](=O)[O-] [3-Nitropropionic acid] | 32.27% |  |  |  | 
7 | Nc1ccncc1 [4-Aminopyridine] |  |  | 34.98% |  | 
8 | COc1cc(CC(=O)O)ccc1O [4-Hydroxy-3-methoxyphenylacetic acid] |  | 38.57% |  |  | 
9 | O=C(O)C=Cc1c[nH]cn1 [4-Imidazoleacrylic acid] |  |  |  |  | 20.39%
10 | Cl.OCc1c[nH]cn1 [4-Imidazolemethanol hydrochloride] |  | 36.75% |  |  | 
11 | NCCc1c[nH]c2ccc(C(N)=O)cc12.O=C(O)/C=C\C(=O)O [5-Carboxamidotryptamine maleate] |  | 35.62% |  |  | 
12 | O=C(O)c1cc2cc(F)ccc2[nH]1 [5-Fluoroindole-2-carboxylic acid] |  |  | 31.84% | 12.00% | 
13 | CC(C)c1cccc(C(C)C)c1N1C(=O)c2ccc(O)cc2C1=O [5HPP-33] |  |  |  |  | 25.79%
14 | CC(=O)[C@H]1CC[C@H]2[C@@H]3CC[C@H]4C[C@H](O)CC[C@]4(C)[C@H]3C(=O)C[C@]12C [5alpha-Pregnan-3alpha-ol-11,20-dione] | 35.35% |  |  |  | 
15 | CC(=O)[C@H]1CC[C@H]2[C@@H]3CC[C@H]4C[C@H](O)CC[C@]4(C)[C@H]3CC[C@]12C [5alpha-Pregnan-3alpha-ol-20-one] |  |  |  |  | 26.94%

same assay, conditions: 20 µM

Row | SMILES | Plate 2 (% inhibition)
16 | O=[N+]([O-])c1cc(O)c(O)c([N+](=O)[O-])c1 [3,5-Dinitrocatechol, reference compound] | 101.20%
17 | COc1cc(CC(=O)O)ccc1O [4-Hydroxy-3-methoxyphenylacetic acid] | -7.80%
18 | Cl.OCc1c[nH]cn1 [4-Imidazolemethanol hydrochloride] | -2.37%
19 | NCCc1c[nH]c2ccc(C(N)=O)cc12.O=C(O)/C=C\C(=O)O [5-Carboxamidotryptamine maleate] | 0.99%

same assay, conditions: 100 uM 2,4-PDCA control wells (columns 1, 2), plate 2

Row | SMILES | Plate 2 (% inhibition)
20 | O=C(O)c1ccnc(C(=O)O)c1 [2,4-pyridinedicarboxylic acid] | 100.30% and 100.62% and 100.70%

same assay, conditions: AspH activity; fixed compound concentration 20 μM; initial LOPAC screen; 0.5%v/v DMSO; read-out: Inhibition at 20 µM [%]

Row | SMILES | inhibition at 20 µM
21 | O=C(O)Cc1ccc(O)c(O)c1 [3,4-Dihydroxyphenylacetic acid, reference compound] | 98.6%

same assay, conditions: LOPAC Plate 3, 100 uM 2,4-PDCA control wells (columns 1, 2)

Row | SMILES | % inhibition
22 | O=C(O)c1ccnc(C(=O)O)c1 [2,4-pyridinedicarboxylic acid] | 99.57% and 99.80%

same assay, conditions: LOPAC Plate 4, compound at 20 uM

Row | SMILES | % inhibition
23 | Nc1nc(Nc2ccccc2)nc2c1ncn2[C@@H]1O[C@H](CO)[C@@H](O)[C@H]1O [2-Phenylaminoadenosine] | -10.62%
24 | C[N+]1(C)CCC(OC(=O)C(c2ccccc2)c2ccccc2)CC1.[I-] [4-DAMP] | -3.63%
25 | Cl.NCCc1ccc(O)cc1 [4-Hydroxyphenethylamine hydrochloride] | -7.46%
26 | O=c1[nH]c2ccccc2c2ccccc12 [6(5H)-Phenanthridinone] | -0.0747%

same assay, conditions: LOPAC Plate 4, compound at 20 uM, substrate conversion

Row | SMILES | % conversion
27 | Nc1nc(Nc2ccccc2)nc2c1ncn2[C@@H]1O[C@H](CO)[C@@H](O)[C@H]1O [2-Phenylaminoadenosine] | 40.09%
28 | C[N+]1(C)CCC(OC(=O)C(c2ccccc2)c2ccccc2)CC1.[I-] [4-DAMP] | 37.71%
29 | Cl.NCCc1ccc(O)cc1 [4-Hydroxyphenethylamine hydrochloride] | 39.01%
30 | O=c1[nH]c2ccccc2c2ccccc12 [6(5H)-Phenanthridinone] | 36.50%

same assay, conditions: LOPAC compound at 20uM, plate 2; conversion of substrate peptide

Row | SMILES | Plate 2 (% conversion)
31 | O=C1NC(=O)C(c2ccccc2)(c2ccccc2)N1 [5,5-Diphenylhydantoin] | 35.84%
32 | O=C(O)c1cc(=O)c2c(Cl)cc(Cl)cc2[nH]1 [5,7-Dichlorokynurenic acid] | 35.63%
33 | O=c1[nH]cc(F)c(=O)[nH]1 [5-Fluorouracil] | 36.11%
34 | N[C@@H](Cc1c[nH]c2ccc(O)cc12)C(=O)O [5-Hydroxy-L-tryptophan] | 37.59%
35 | CCNC(=O)[C@H]1O[C@@H](n2cnc3c(N)ncnc32)[C@H](O)[C@@H]1O [5-N-Ethylcarboxamidoadenosine] | 35.71%
36 | C[C@H]1O[C@@H](n2cc(F)c(=O)[nH]c2=O)[C@H](O)[C@@H]1O [5-fluoro-5-deoxyuridine] | 36.33%
37 | CCCCCC(O)CCCC(=O)O.[Na] (centres unmarked) [5-hydroxydecanoic acid sodium] | 36.96%
38 | COc1cc2c(CCNC(C)=O)c[nH]c2cc1O [6-Hydroxymelatonin] | 36.89%

same assay, conditions: LOPAC compound at 20uM, plate 2; normalised to DMSO and 2,4-PDCA controls

Row | SMILES | Plate 2 (% inhibition)
39 | O=c1oc(Cl)c(Cl)c2ccccc12 [3,4-Dichloroisocoumarin] | 18.85%
40 | O=C(O)c1cc(=O)c2c(Cl)cc(Cl)cc2[nH]1 [5,7-Dichlorokynurenic acid] | 0.98%
41 | O=C(O)Cc1c[nH]c2ccc(O)cc12 [5-Hydroxyindolacetic acid] | -3.79%
42 | CCNC(=O)[C@H]1O[C@@H](n2cnc3c(N)ncnc32)[C@H](O)[C@@H]1O [5-N-Ethylcarboxamidoadenosine] | 0.73%
43 | C[C@H]1O[C@@H](n2cc(F)c(=O)[nH]c2=O)[C@H](O)[C@@H]1O [5-fluoro-5-deoxyuridine] | -1.12%
44 | CCCCCC(O)CCCC(=O)O.[Na] (centres unmarked) [5-hydroxydecanoic acid sodium] | -3.01%
45 | COc1cc2c(CCNC(C)=O)c[nH]c2cc1O [6-Hydroxymelatonin] | -2.79%

same assay, conditions: LOPAC compound at 20uM, plate 2; normalised to DMSO and 2,4-PDCA controls; read-out: Plate 2 (% inhibition)

Row | SMILES | inhibition at 20 µM
46 | O=C1NC(=O)C(c2ccccc2)(c2ccccc2)N1 [5,5-Diphenylhydantoin] | 0.33%
47 | O=c1[nH]cc(F)c(=O)[nH]1 [5-Fluorouracil] | -0.46%
48 | N[C@@H](Cc1c[nH]c2ccc(O)cc12)C(=O)O [5-Hydroxy-L-tryptophan] | -4.87%

same assay, conditions: LOPAC compound at 20uM, plate 3; conversion of substrate peptide

Row | SMILES | Plate 3 (% conversion)
49 | COc1cc2c(cc1O)CC[C@@H]1[C@@H]2CC[C@]2(C)[C@@H](O)CC[C@@H]12 [2-methoxyestradiol] | 41.59%
50 | N[C@@H](Cc1ccc(O)c(I)c1)C(=O)O [3-Iodo-L-tyrosine] | 30.44%
51 | CCCn1c(=O)[nH]c(=O)c2nc[nH]c21 [3-n-Propylxanthine] | 38.43%

same assay, conditions: LOPAC compound at fixed 20 uM; plate 1, normalised to DMSO and 2,4-PDCA controls

Row | SMILES | Plate 1 (% inhibition)
52 | Nc1nc(Cl)nc2c1ncn2[C@@H]1O[C@H](CO)[C@@H](O)[C@H]1O [2-Chloroadenosine] | -4.87%
53 | NCC(O)(CS(=O)(=O)O)c1ccc(Cl)cc1 (centres unmarked) [2-Hydroxysaclofen] | -6.82%
54 | NCCCS(=O)(=O)O.[Na] [3-Amino-1-propanesulfonic acid sodium] | -7.08%
55 | N#CCCN.N#CCCN.O=C(O)/C=C/C(=O)O [3-Aminopropionitrile fumarate] | 48.97%
56 | Cc1cn([C@H]2C[C@H](N=[N+]=[N-])[C@@H](CO)O2)c(=O)[nH]c1=O [3-Azido-3-deoxythymidine] | -7.24%
57 | O=[N+]([O-])c1cccc2c(Br)n[nH]c12 [3-Bromo-7-nitroindazole] | 1.81%
58 | Nc1c[n+](N2CCOCC2)no1.[Cl-] [3-Morpholinosydnonimine hydrochloride] | 64.67%
59 | Nc1ccc2c3c(cccc13)C(=O)NC2=O [4-Amino-1,8-naphthalimide] | -1.00%
60 | N=C(N)c1ccc(N)cc1 [4-Aminobenzamidine dihydrochloride] | -9.05%
61 | CN(C)c1nc(N)c(C(=O)NC(=N)N)nc1Cl [5-(N,N-Dimethyl)amiloride hydrochloride] | -6.54%
62 | N=C(N)NC(=O)c1nc(Cl)c(N2CCCCCC2)nc1N [5-(N,N-hexamethylene)amiloride] | -28.14%
63 | Cl.NCCCCC(=O)O [5-Aminovaleric acid hydrochloride] | 15.05%
64 | Nc1ncn([C@@H]2O[C@H](CO)[C@@H](O)[C@H]2O)c(=O)n1 [5-azacytidine] | 7.60%
65 | NCCCCCC(=O)O [6-Aminohexanoic acid] | -0.76%

same assay, conditions: LOPAC compound at fixed 20 uM; substrate conversion, plate 1

Row | SMILES | Plate 1 (% conversion)
66 | Nc1nc(Cl)nc2c1ncn2[C@@H]1O[C@H](CO)[C@@H](O)[C@H]1O [2-Chloroadenosine] | 37.51%
67 | NCC(O)(CS(=O)(=O)O)c1ccc(Cl)cc1 (centres unmarked) [2-Hydroxysaclofen] | 38.16%
68 | NCCCS(=O)(=O)O.[Na] [3-Amino-1-propanesulfonic acid sodium] | 38.25%
69 | N#CCCN.N#CCCN.O=C(O)/C=C/C(=O)O [3-Aminopropionitrile fumarate] | 19.43%
70 | Cc1cn([C@H]2C[C@H](N=[N+]=[N-])[C@@H](CO)O2)c(=O)[nH]c1=O [3-Azido-3-deoxythymidine] | 38.30%
71 | O=[N+]([O-])c1cccc2c(Br)n[nH]c12 [3-Bromo-7-nitroindazole] | 35.26%
72 | Nc1c[n+](N2CCOCC2)no1.[Cl-] [3-Morpholinosydnonimine hydrochloride] | 14.15%
73 | Nc1ccc2c3c(cccc13)C(=O)NC2=O [4-Amino-1,8-naphthalimide] | 36.21%
74 | N=C(N)c1ccc(N)cc1 [4-Aminobenzamidine dihydrochloride] | 38.91%
75 | CN(C)c1nc(N)c(C(=O)NC(=N)N)nc1Cl [5-(N,N-Dimethyl)amiloride hydrochloride] | 38.07%
76 | N=C(N)NC(=O)c1nc(Cl)c(N2CCCCCC2)nc1N [5-(N,N-hexamethylene)amiloride] | 45.32%
77 | Cl.NCCCCC(=O)O [5-Aminovaleric acid hydrochloride] | 30.82%
78 | Nc1ncn([C@@H]2O[C@H](CO)[C@@H](O)[C@H]2O)c(=O)n1 [5-azacytidine] | 33.32%
79 | NCCCCCC(=O)O [6-Aminohexanoic acid] | 36.13%

same assay, conditions: plate 1

Row | SMILES | Plate 1 (% inhibition)
80 | O=C(O)c1ccnc(C(=O)O)c1 [2,4-pyridinedicarboxylic acid] | 100.60% and 99.95% and 100.29%

same assay, conditions: plate 5, 100 uM 2,4-PDCA controls, plate columns 1, 2

Row | SMILES | Plate 5 (% conversion), 2,4-PDCA control
81 | O=C(O)c1ccnc(C(=O)O)c1 [2,4-pyridinedicarboxylic acid] | 2.34%
